Results published in patent publication US7582627B2, “3-aminoquinazolin-2,4-dione antibacterial agents” (Warner-Lambert Company, priority 2000, dated 2009).
Converted amounts (≈) assume the structure as drawn. Where a name gives a salt, the structure may show the parent alone. Read-outs that look alike come from different tables or passages of the source.

Experiments:
S. pyogenes = assay: In vivo median protective dose, lethal systemic infection; details: mice
Protocol: (§1) The in vivo activity of invention compounds is evaluated according to the procedure of Miller et al., Proc. Soc. Exp. Biol. Med, 1944; 57:261. The median protective dose (PD50) is determined in mice given lethal systemic infections. Two 3-aminoquinazolin-2,4-diones of the invention are compared to a […], and the results are presented in Table 3. The results establish the unexpected superiority of the 3-amino invention compounds compared to similar 3-hydroxy analogs.

S. aureus 29213 = assay: Antibacterial assay, microtitration MIC; assay type: cell-based
Protocol: (§2) The compounds of the present invention are tested against an assortment of Gram negative and Gram positive organisms using standard microtitration techniques (Cohen et al., Antimicrob. Agents Chemother., 1985; 28:766; Heifetz et al., Antimicrob. Agents Chemother., 1974; 6:124). The results of the evaluation of representative 3-aminoquinazolin-2,4-diones of Formula I are shown in Table 2 and compared to two 3-hydroxyquinazolin-2,4-diones.

E. coli Tol C = assay: Antibacterial assay, microtitration MIC; assay type: cell-based; details: Escherichia coli, read-out: Minimum Inhibitory Concentrations E. coli Tol C
Protocol: as §2

E. coli B90 = assay: Antibacterial assay, microtitration MIC; assay type: cell-based; details: Escherichia coli
Protocol: as §2

E. faecalis RB1 = assay: Antibacterial assay, microtitration MIC; assay type: cell-based; details: Enterococcus faecalis
Protocol: as §2

E. coli MC4100 = assay: Antibacterial assay, microtitration MIC; assay type: cell-based; details: Escherichia coli
Protocol: as §2

S. pyogenes C203 = assay: Antibacterial assay, microtitration MIC; assay type: cell-based; details: Streptococcus pyogenes
Protocol: as §2

E. coli gyrase = target: T1, E. coli gyrase (Escherichia coli, UniProt P0AES4+P0AES6); assay: DNA gyrase supercoiling inhibition assay; assay type: biochemical
T1 construct: purchased Lucent, Ltd., Leicester, UK
Protocol: The effects of invention compounds on the activity of DNA gyrase is determined in the supercoiling inhibition assay, following reaction conditions recommended by the enzyme supplier (Lucent, Ltd., Leicester, UK). Reactions are performed in buffer G (35 mM Tris-HCl (pH 7.5), 24 mM KCl, 4 mM MgCl2, 2 mM DTT, 1.8 mM spermidine, 1 mM ATP, 0.1 mg/mL bovine serum albumin). Relaxed plasmid pBR322 (0.25 μg, Lucent, Ltd., Leicester, UK) is reacted with 1 U E. coli gyrase (Lucent, Ltd., Leicester, UK), in the absence or presence of test compounds, for 30 minutes at 37° C. Reactions are stopped by the addition of SDS and proteinase K to respective final concentrations of 1% and 0.5 mg/mL. After an additional 30 minutes at 37° C., one-tenth volume of 10× loading buffer (0.3% bromophenol blue, 16% Ficoll, 10 mM Na2HPO4) is added, and reactions are loaded onto agarose gels and electrophoresed. The concentration of representative invention compounds of Formula I inhibiting 50% of the supercoiling activity of DNA gyrase is given as an IC50 and recorded in Table 2.

S. aureus UC-76 = assay: Cross resistance antibacterial assay, microtitration MIC; assay type: cell-based; details: Staphylococcus aureus, UC76; typical sensitive laboratory strain (wild type); read-out: Minimum Inhibitory Concentrations S. aureus UC-76
Protocol: (§3) The compounds of the present invention are tested against an assortment of ciprofloxacin resistant E. coli and S. aureus organisms described below using standard microtitration techniques (Cohen, et al., Antimicrob. Agents Chemother., 1985; 28:766; Heifetz, et al., Antimicrob. Agents Chemother., 1974; 6:124).

S. aureus 2552 = assay: as above; assay type: cell-based; details: Staphylococcus aureus, read-out: Minimum Inhibitory Concentrations S. aureus 2552
Protocol: as §3

E. coli LLM1 = assay: as above; assay type: cell-based; details: Escherichia coli, LLM1, read-out: Minimum Inhibitory Concentrations E. coli LLM1
Protocol: as §3

E. coli JL4 = assay: as above; assay type: cell-based; details: Escherichia coli, Tol C pump deficient strain with E. coli W3110 background, read-out: Minimum Inhibitory Concentrations E. coli JL4
Protocol: as §3

S. aureus 2554 = assay: as above; assay type: cell-based; details: Staphylococcus aureus, 2554, read-out: Minimum Inhibitory Concentrations S. aureus 2554
Protocol: as §3

S. aureus 2558 = assay: as above; assay type: cell-based; details: Staphylococcus aureus, 2558, read-out: Minimum Inhibitory Concentrations S. aureus 2558
Protocol: as §3

E. coli = assay: In vivo median protective dose, lethal systemic infection; details: mice
Protocol: as §1

T1 sequence (P0AES4 whole entry, one chain of several): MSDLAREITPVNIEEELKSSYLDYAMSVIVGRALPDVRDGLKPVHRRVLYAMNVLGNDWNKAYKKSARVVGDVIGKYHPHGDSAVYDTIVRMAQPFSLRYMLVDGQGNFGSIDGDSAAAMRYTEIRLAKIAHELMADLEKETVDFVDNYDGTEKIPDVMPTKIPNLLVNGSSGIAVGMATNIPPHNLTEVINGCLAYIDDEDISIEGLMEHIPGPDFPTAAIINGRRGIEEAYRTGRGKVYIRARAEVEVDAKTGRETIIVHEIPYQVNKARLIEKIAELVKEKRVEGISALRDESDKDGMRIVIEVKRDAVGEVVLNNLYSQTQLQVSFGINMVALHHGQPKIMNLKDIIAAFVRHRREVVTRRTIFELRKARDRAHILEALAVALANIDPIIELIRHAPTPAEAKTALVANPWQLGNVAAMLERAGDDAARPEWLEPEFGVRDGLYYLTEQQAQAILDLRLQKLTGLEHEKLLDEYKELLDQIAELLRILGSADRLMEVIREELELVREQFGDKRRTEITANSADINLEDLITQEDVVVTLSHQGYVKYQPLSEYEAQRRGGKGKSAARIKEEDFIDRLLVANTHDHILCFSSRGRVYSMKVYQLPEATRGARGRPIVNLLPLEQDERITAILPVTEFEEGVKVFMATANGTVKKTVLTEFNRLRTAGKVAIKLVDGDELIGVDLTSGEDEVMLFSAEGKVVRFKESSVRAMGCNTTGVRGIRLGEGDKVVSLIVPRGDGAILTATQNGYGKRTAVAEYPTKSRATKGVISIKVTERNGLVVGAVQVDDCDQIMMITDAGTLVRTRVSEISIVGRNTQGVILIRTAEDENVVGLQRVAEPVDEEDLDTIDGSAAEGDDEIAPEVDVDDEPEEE

Structure (SMILES) | MIC (S. aureus UC-76) [µg/mL] | MIC (S. aureus 2552) [µg/mL] | MIC (E. coli LLM1) [µg/mL] | MIC (E. coli JL4) [µg/mL] | MIC (S. aureus 2554) [µg/mL] | MIC (S. aureus 2558) [µg/mL] | also measured
N[C@@H]1[C@H]2CN(c3cc4c(cc3F)c(=O)n(O)c(=O)n4C3CC3)C[C@@H]12 [drawing 286, reference compound] | – | – | – | – | – | – | PD50 (S. pyogenes): >100 mg/kg
Cl.Nn1c(=O)c2cc(F)c(N3CCC(CO)C3)c(Cl)c2n(C2CC2)c1=O (stereo not drawn) [Compound 12, 3-Amino-7-(3-hydroxymethylpyrrolidin-1-yl)-8-chloro-1-cyclopropyl-6-fluoro-1H-quinazoline-2,4-dione hydrochloride] | 1 | 1 | 0.25 | 0.06 | 1 | 2 | MIC (S. aureus 29213; Staphylococcus aureus, 29213, Gram positive, read-out: Minimum Inhibitory Concentrations S. aureus 29213): 2 µg/mL; MIC (E. coli Tol C): 0.13 µg/mL; MIC (E. coli B90; B90, Gram negative, read-out: Minimum Inhibitory Concentrations E. coli B90): 0.25 µg/mL; MIC (E. faecalis RB1; RB1, Gram positive, read-out: Minimum Inhibitory Concentrations E. faecalis RB1): 4 µg/mL; MIC (E. coli MC4100; MC4100, Gram negative, read-out: Minimum Inhibitory Concentrations E. coli MC4100): 16 µg/mL; MIC (S. pyogenes C203; C203, Gram positive, read-out: Minimum Inhibitory Concentrations S. pyogenes C203): 8 µg/mL; IC50 (E. coli gyrase): 2100 nM; melting point: 78 to 80 °C
CC1(CN)CCN(c2c(F)cc3c(=O)n(N)c(=O)n(C4CC4)c3c2Cl)C1 (stereo not drawn) [Compound 3, 3-Amino-7-[3-(aminomethyl)-3-methylpyrrolidin-1-yl]-8-chloro-1-cyclopropyl-6-fluoro-1H-quinazoline-2,4-dione hydrochloride] | 1 | 2 | 1 | 0.5 | 2 | 4 | –
N[C@@H]1[C@H]2CN(c3cc4c(cc3F)c(=O)n(O)c(=O)n4C3CC3)C[C@@H]12 [drawing 287, reference compound] | 4 (≈ 12 µM) | 32 (≈ 96.3 µM) | 4 (≈ 12 µM) | 0.25 (≈ 0.752 µM) | 32 (≈ 96.3 µM) | > 64 | –
NCC1CCN(c2c(F)cc3c(=O)n(N)c(=O)n(C4CC4)c3c2Cl)C1 (stereo not drawn) [Compound 1, 3-Amino-7-(3-aminomethylpyrrolidin-1-yl)-8-chloro-1-cyclopropyl-6-fluoro-1H-quinazoline-2,4-dione hydrochloride] | 0.13 | 1 | 0.5 | 0.13 | 1 | 1 | PD50 (S. pyogenes): 12 mg/kg; MIC (S. aureus 29213; Staphylococcus aureus, 29213, read-out: Minimum Inhibitory Concentrations S. aureus 29213): 0.5 µg/mL; MIC (E. coli Tol C): 0.25 µg/mL; MIC (E. coli B90; B90, read-out: Minimum Inhibitory Concentrations E. coli B90): 1 µg/mL; MIC (E. faecalis RB1; RB1, read-out: Minimum Inhibitory Concentrations E. faecalis RB1): 1 µg/mL; MIC (E. coli MC4100; MC4100, read-out: Minimum Inhibitory Concentrations E. coli MC4100): 2 µg/mL; MIC (S. pyogenes C203; C203, read-out: Minimum Inhibitory Concentrations S. pyogenes C203): 0.13 µg/mL; IC50 (E. coli gyrase; supercoiling of relaxed pBR322, 30 minutes at 37° C., read-out: E. coli gyrase IC50): 1000 nM
N[C@H]1CCN(c2cc3c(cc2F)c(=O)n(O)c(=O)n3C2CC2)C1 [reference compound] | 4 (≈ 12.5 µM) | > 64 | 2 (≈ 6.24 µM) | 0.5 (≈ 1.56 µM) | > 64 | > 64 | –
Cl.NC1CCN(c2c(F)cc3c(=O)n(N)c(=O)n(C4CC4)c3c2Cl)C1 (stereo not drawn) [Compound 10, 3-Amino-7-(3-aminopyrrolidin-1-yl)-8-chloro-1-cyclopropyl-6-fluoro-1H-quinazoline-2,4-dione hydrochloride] | – | – | – | – | – | – | PD50 (E. coli): 72 mg/kg
